Like-named read-outs stand apart in the source and are kept apart here.
Molecular target: T1, AR protein (Homo sapiens, UniProt P10275, T878A)
T1 construct: The percent AR protein degradation induced by these compounds at various concentrations in LNCaP cells; host or cells: LNCaP
T1 sequence (P10275 1-920 T878A): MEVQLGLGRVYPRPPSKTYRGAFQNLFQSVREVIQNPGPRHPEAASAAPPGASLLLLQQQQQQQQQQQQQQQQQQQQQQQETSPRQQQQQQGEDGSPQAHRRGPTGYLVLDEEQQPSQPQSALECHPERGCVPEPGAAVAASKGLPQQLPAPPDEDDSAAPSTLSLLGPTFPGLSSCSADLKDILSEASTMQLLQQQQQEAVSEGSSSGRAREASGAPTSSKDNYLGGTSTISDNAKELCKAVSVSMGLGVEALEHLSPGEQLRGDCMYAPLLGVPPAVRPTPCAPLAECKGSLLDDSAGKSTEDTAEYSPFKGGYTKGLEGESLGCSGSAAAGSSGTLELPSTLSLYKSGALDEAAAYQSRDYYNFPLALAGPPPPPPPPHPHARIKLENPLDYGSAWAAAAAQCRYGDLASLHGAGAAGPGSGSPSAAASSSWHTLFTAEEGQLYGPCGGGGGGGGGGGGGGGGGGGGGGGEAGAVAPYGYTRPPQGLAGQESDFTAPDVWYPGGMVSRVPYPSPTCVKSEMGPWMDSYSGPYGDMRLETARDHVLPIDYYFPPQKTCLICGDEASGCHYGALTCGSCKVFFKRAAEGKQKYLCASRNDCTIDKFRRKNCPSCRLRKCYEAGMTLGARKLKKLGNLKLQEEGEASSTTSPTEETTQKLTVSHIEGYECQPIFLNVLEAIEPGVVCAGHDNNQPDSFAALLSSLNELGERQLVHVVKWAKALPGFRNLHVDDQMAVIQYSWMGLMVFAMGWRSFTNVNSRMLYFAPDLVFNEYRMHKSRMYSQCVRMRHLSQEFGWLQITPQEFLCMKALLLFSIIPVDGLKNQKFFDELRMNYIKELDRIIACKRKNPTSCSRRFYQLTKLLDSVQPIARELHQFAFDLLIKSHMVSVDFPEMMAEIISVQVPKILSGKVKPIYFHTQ
Assay: AR protein degradation in LNCaP cells (Western blotting)
Type: cell-based
Method: Cell lines and Cell Culture: All the LNCaP, VCaP and 22RV1 cells used were purchased from American Type Culture Collection (ATCC). […] All of the cells were supplemented with 10% fetal bovine serum (Invitrogen) at 37° C. in a humidified 5% CO2 incubator.
Western Blotting. Treated cells were lysed by RIPA buffer supplemented with protease and phosphatase inhibitors. […] Software ImageJ was used to quantify the percentage of AR degradation. The net protein bands and loading controls are calculated by deducting the background from the inverted band value. The final relative quantification values are the ratio of net band to net loading control.

[1] = LNCaP, 0.01 μM, treatment time 6 h, average of three independent experiments
[2] = LNCaP, 0.1 μM, treatment time 6 h, average of three independent experiments, read-out: % AR protein degradation in LNCaP Cells
[3] = LNCaP, 1 μM, treatment time 6 h, average of three independent experiments, read-out: % AR protein degradation in LNCaP Cells
[4] = 0.01 μM, treatment time 6 h, average of three independent experiments
[5] = 0.1 μM, treatment time 6 h, average of three independent experiments
[6] = 1 μM, treatment time 6 h, average of three independent experiments
[7] = LNCaP, 6 h, read-out: % AR protein degradation in LNCaP Cells
[8] = 10 μM, treatment time 6 h, average of three independent experiments

| SMILES | Dmax at 0.01 µM [1] | Dmax at 0.1 µM [2] | Dmax at 1 µM [3] | % AR protein degradation in LNCaP Cells [4] | % AR protein degradation in LNCaP Cells [5] | % AR protein degradation in LNCaP Cells [6] | further results |
| --- | --- | --- | --- | --- | --- | --- | --- |
| Cc1cc([C@H](C(=O)N2C[C@H](O)C[C@H]2C(=O)N[C@@H](CC(=O)N2CCC(N3CCC(C#Cc4ccc(N5C(=S)N(c6ccc(C#N)c(C(F)(F)F)c6)C(=O)C5(C)C)cc4)CC3)CC2)c2ccc(-c3scnc3C)cc2)C(C)C)on1 [Compound 29, (2S,4R)—N—((S)-3-(4-((4-(3-(4-Cyano-3-(trifluoromethyl)phenyl)-5,5-dimethyl-4-oxo-2-thioxoimidazolidin-1-yl)phenyl)ethynyl)-[1,4′-bipiperidin]-1′-yl)-1-(4-(4-methylthiazol-5-yl)phenyl)-3-oxopropyl)-4-hydroxy-1-((R)-3-methyl-2-(3-methylisoxazol-5-yl)butanoyl)pyrrolidine-2-carboxamide] | 20% | 81% | 97% |  |  |  |  |
| Cc1cc([C@H](C(=O)N2C[C@H](O)C[C@H]2C(=O)N[C@@H](CC(=O)N2CCC(N3CCC(C#Cc4ccc(N5C(=S)N(c6cnc(C#N)c(C(F)(F)F)c6)C(=O)C56CCC6)cc4)CC3)CC2)c2ccc(-c3scnc3C)cc2)C(C)C)on1 [Compound 30, (2S,4R)—N—((S)-3-(4-((4-(7-(6-Cyano-5-(trifluoromethyl)pyridin-3-yl)-8-oxo-6-thioxo-5,7-diazaspiro[3.4]octan-5-yl)phenyl)ethynyl)-[1,4′-bipiperidin]-1′-yl)-1-(4-(4-methylthiazol-5-yl)phenyl)-3-oxopropyl)-4-hydroxy-1-((R)-3-methyl-2-(3-methylisoxazol-5-yl)butanoyl)pyrrolidine-2-carboxamide] | 38% | 80% | 95% |  |  |  |  |
| Cc1cc([C@H](C(=O)N2C[C@H](O)C[C@H]2C(=O)N[C@@H](CC(=O)N2CCC(N3CCC(C#Cc4ccc(C(=O)N[C@H]5C(C)(C)[C@H](Oc6ccc(C#N)c(Cl)c6)C5(C)C)cc4)CC3)CC2)c2ccc(-c3scnc3C)cc2)C(C)C)on1 [Compound 32, (2S,4R)—N—((S)-3-(4-((4-(((1r,3r)-3-(3-Chloro-4-cyanophenoxy)-2,2,4,4-tetramethyl-cyclobutyl)carbamoyl)phenyl)ethynyl)-[1,4′-bipiperidin]-1′-yl)-1-(4-(4-methylthiazol-5-yl)phenyl)-3-oxopropyl)-4-hydroxy-1-((R)-3-methyl-2-(3-methylisoxazol-5-yl)butanoyl)pyrrolidine-2-carboxamide] |  |  |  | 76% | 98% | 99% | AR degradation (Western blotting, dose-dependent) (LNCaP, at 10 nM): partial AR degradation; AR degradation (Western blotting, dose-dependent) (LNCaP, at both 100 nM and 1 μM): essentially complete AR degradation |
| Cc1cc([C@H](C(=O)N2C[C@H](O)C[C@H]2C(=O)N[C@@H](CC(=O)N2CCC(N3CCC(C#Cc4ccc(Cc5c(C)nn(-c6ccc(C#N)c(Cl)c6)c5C)cc4)CC3)CC2)c2ccc(-c3scnc3C)cc2)C(C)C)on1 [Compound 33, (2S,4R)—N—((S)-3-(4-((4-((1-(3-Chloro-4-cyanophenyl)-3,5-dimethyl-1H-pyrazol-4-yl)methyl)phenyl)ethynyl)-[1,4′-bipiperidin]-1′-yl)-1-(4-(4-methylthiazol-5-yl)phenyl)-3-oxopropyl)-4-hydroxy-1-((R)-3-methyl-2-(3-methylisoxazol-5-yl)butanoyl)pyrrolidine-2-carboxamide] |  |  |  |  |  |  | Dmax at 0.1 µM [7]: 65%; Dmax at 1 µM [7]: 93%; Dmax at 10 µM [7]: 78% |
| Cc1ncsc1-c1ccc([C@H](CC(=O)N2CCC(N3CCC(C#Cc4ccc(C(=O)N[C@H]5C(C)(C)[C@H](Oc6ccc(C#N)c(Cl)c6)C5(C)C)cc4)CC3)CC2)NC(=O)[C@@H]2C[C@@H](O)CN2C(=O)[C@@H](NC(=O)C2(C#N)CC2)C(C)(C)C)cc1 [Compound 35, (2S,4R)—N—((S)-3-(4-((4-(((1r,3r)-3-(3-Chloro-4-cyanophenoxy)-2,2,4,4-tetramethyl-cyclobutyl)carbamoyl)phenyl)ethynyl)-[1,4′-bipiperidin]-1′-yl)-1-(4-(4-methylthiazol-5-yl)phenyl)-3-oxopropyl)-1-((S)-2-(1-cyanocyclopropane-1-carboxamido)-3,3-dimethylbutanoyl)-4-hydroxypyrrolidine-2-carboxamide] |  |  |  | 76% | 99% | 100% | AR degradation (Western blotting, dose-dependent) (LNCaP, at 10 nM): partial AR degradation; AR degradation (Western blotting, dose-dependent) (LNCaP, at both 100 nM and 1 μM): essentially complete AR degradation |
| CC(=O)N[C@H](C(=O)N1C[C@H](O)C[C@H]1C(=O)N[C@@H](CC(=O)N1CCC(N2CCC(C#Cc3ccc(C(=O)N[C@H]4C(C)(C)[C@H](Oc5ccc(C#N)c(Cl)c5)C4(C)C)cc3)CC2)CC1)c1ccc(-c2scnc2C)cc1)C(C)(C)C [Compound 36, (2S,4R)-1-((S)-2-Acetamido-3,3-dimethylbutanoyl)-N—((S)-3-(4-((4-(((1r,3r)-3-(3-chloro-4-cyanophenoxy)-2,2,4,4-tetramethylcyclobutyl)carbamoyl)phenyl)ethynyl)-[1,4′-bipiperidin]-1′-yl)-1-(4-(4-methylthiazol-5-yl)phenyl)-3-oxopropyl)-4-hydroxypyrrolidine-2-carboxamide] |  |  |  | 39% | 77% | 99% |  |
| Cc1ncsc1-c1ccc([C@@H](CC(=O)N2CCC(N3CCC(C#Cc4ccc(C(=O)N[C@H]5C(C)(C)[C@H](Oc6ccc(C#N)c(Cl)c6)C5(C)C)cc4)CC3)CC2)NC(=O)[C@@H]2C[C@@H](O)CN2C(=O)[C@@H](NC(=O)C2(F)CC2)C(C)(C)C)cc1 [Compound 37, (2S,4R)—N—((R)-3-(4-((4-(((1r,3r)-3-(3-Chloro-4-cyanophenoxy)-2,2,4,4-tetramethyl-cyclobutyl)carbamoyl)phenyl)ethynyl)-[1,4′-bipiperidin]-1′-yl)-1-(4-(4-methylthiazol-5-yl)phenyl)-3-oxopropyl)-1-((S)-2-(1-fluorocyclopropane-1-carboxamido)-3,3-dimethyl-butanoyl)-4-hydroxypyrrolidine-2-carboxamide] |  |  |  |  | <5% | <5% | % AR protein degradation in LNCaP Cells [8]: <5% |
| Cc1ncsc1-c1ccc([C@H](CC(=O)N2CCC(N3CCC(C#Cc4ccc(C(=O)N[C@H]5C(C)(C)[C@H](Oc6ccc(C#N)c(Cl)c6)C5(C)C)cc4)CC3)CC2)NC(=O)[C@@H]2C[C@@H](O)CN2C(=O)[C@H](NC(=O)C2(F)CC2)C(C)(C)C)cc1 [Compound 38, (2S,4R)—N—((S)-3-(4-((4-(((1r,3r)-3-(3-Chloro-4-cyanophenoxy)-2,2,4,4-tetramethyl-cyclobutyl)carbamoyl)phenyl)ethynyl)-[1,4′-bipiperidin]-1′-yl)-1-(4-(4-methylthiazol-5-yl)phenyl)-3-oxopropyl)-1-((R)-2-(1-fluorocyclopropane-1-carboxamido)-3,3-dimethyl-butanoyl)-4-hydroxypyrrolidine-2-carboxamide] |  |  |  |  | <5% | <5% | % AR protein degradation in LNCaP Cells [8]: <5% |
| Cc1cc([C@H](C(=O)N2C[C@H](O)C[C@H]2C(=O)N[C@@H](CC(=O)NCCCCCCCCCNC(=O)c2ccc(C(=O)N[C@H]3C(C)(C)[C@H](Oc4ccc(C#N)c(Cl)c4)C3(C)C)cc2)c2ccc(-c3scnc3C)cc2)C(C)C)on1 [Compound 39, N1-((1r,3r)-3-(3-Chloro-4-cyanophenoxy)-2,2,4,4-tetramethylcyclobutyl)-N4-(9-((S)-3-((2S,4R)-4-hydroxy-1-((R)-3-methyl-2-(3-methylisoxazol-5-yl)butanoyl)pyrrolidine-2-carboxamido)-3-(4-(4-methylthiazol-5-yl)phenyl)propanamido)nonyl)terephthalamide] | 43% | 91% | 96% |  |  |  |  |

From US20220081435A1, “ANDROGEN RECEPTOR PROTEIN DEGRADERS” (THE REGENTS OF THE UNIVERSITY OF MICHIGAN, priority 2019, published 2022)
